The values below come from patent US8470889B2 (TRT Pharma Inc., priority 2008, dated 2013).

Like-named read-outs stand apart in the source and are kept apart here.

Data set [1] has as its system LNCaP cells.
Description: (§1) MDA PCa 2b was seeded at the same density in medium BRFF-HPC1 (Athena Enzyme Systems, Baltimore, Md., USA) supplemented with 20% FBS. After overnight incubation, the medium was changed to a fresh medium containing different concentrations of test compounds diluted from stock DMSO solution. The final concentration of DMSO is 0.5%. After 72 h of incubation with test compounds, 20 μL of 3-(4,5-dimethyl thiazol-2-yl)-2,5-diphenyltetrazolium bromide (MTT) solution (5 mg/mL in PBS) were added to each well and incubated further for 2 h. Next, the supernatant was aspirated and the MTT formazan formed by metabolically viable cells was dissolved in 100 μL of isopropanol. The plates were mixed for 30 min, and the absorbance was measured at 600 nm on a plate reader (FLUOstar OPTIMA, BMG LabTech). All samples were in triplicate. The IC50 values were determined from dose-response curves by nonlinear regression using PRISM v5.00 (GraphPad Software Inc, La Jolla, Calif., USA).
(§2) The in vitro cytotoxicity of 1-20 were evaluated by MTT assays in a panel of prostate cancer cell lines, including LNCaP, MDA PCa 2b, 22Rv1, C4-2B and PC-3.
In data set [2] the test system is PC-3 cells.
Data set [3] deals with LNCaP cells. In words: MTT cell growth inhibition, LNCaP.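 Also: MTT formazan absorbance at 600 nm read after 72 h of compound exposure, IC50 fitted by nonlinear regression of dose-response curves, samples run in triplicate.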
Description: as §1, §2
For data set [4], the system named is 22Rv1 cells. Briefly: MTT cell growth inhibition, 22Rv1. Conditions: MTT.
Description: as §1, §2
For data set [5], the system named is PC-3 cells. Briefly: MTT cell growth inhibition, PC-3.
Data set [6] deals with C4-2B cells. In words: MTT cell growth inhibition, C4-2B.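 Also: cells treated with a dilution series for 72 h, then MTT added and absorbance read at 600 nm, IC50 fitted from dose-response curves by nonlinear regression.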
The mark [7] stands for this setting: read-out: Cellular IC50 (μM) 22Rv1, Table 9.
Where [8] appears, read: read-out: Cellular IC50 (μM) PC-3, Table 9.
Setting [9] is: read-out: Cellular IC50 (μM) LNCaP, Table 9.
The mark [10] stands for this setting: read-out: Cellular IC50 (μM) C4-2B, Table 9.
Where [11] appears, read: read-out: Cellular IC50 (μM) 22Rv1, Table 8.
The mark [12] stands for this setting: read-out: Cellular IC50 (μM) PC3, Table 8.
The mark [13] stands for this setting: read-out: Cellular IC50 (μM) LNCaP, Table 8.
[14] abbreviates: read-out: Cellular IC50 (μM) C4-2B, Table 8.

With `COc1ccc(/C=C/C(=O)/C=C/C2=C(C)CCCC2(C)C)cc1O` [Compound B2], the IC50 in data set [1] is 9.9 µM; in data set [2], 37.4 µM.
On to `CC1=C(/C=C/C(=O)/C=C/c2cccc(F)c2)C(C)(C)CCC1` [Compound B9], for which the IC50 stood at 12.9 µM in data set [3] (read-out: IC50 in LNCaP cells) and 18.7 µM in data set [2].
On to `CC1=C(/C=C/C(=O)/C=C/c2ccc(O)c([N+](=O)[O-])c2)C(C)(C)CCC1` [Compound B12], for which the figures for the IC50 in data set [1] and in data set [2] were 26.8 µM and above 50 µM, respectively.
For the compound `CC1=C(/C=C/C(=O)/C=C/c2cccc(C)c2)C(C)(C)CCC1` [Compound B14], the IC50 in data set [1] stood at 17.8 µM; in data set [2], 35 µM.
With `CC1=C(/C=C/C(=O)/C=C/c2cc([N+](=O)[O-])ccc2Cl)C(C)(C)CCC1` [Compound B13], the values for the IC50 in data set [1] and in data set [2] were 4.2 µM and 18.9 µM, respectively.
Turning to `CC1=C(/C=C/C(=O)/C=C/c2ccc(-c3ccccc3)cc2)C(C)(C)CCC1` [Compound B15], the IC50 worked out at 14.8 µM in data set [1] and 47.8 µM in data set [2].
Regarding `CC1(C)CCC(O)C=C1/C=C/C(=O)/C=C/c1c[nH]c2ccc(Cl)cc12` (stereo not shown) [Compound B84], the IC50 in data set [4] (setting [7]) is 14.3 µM; in data set [5] (setting [8]) it was 24.5 µM; in data set [3] (setting [9]), 17.8 µM; in data set [6] (setting [10]), 18.2 µM.
Turning to `CC1=C(/C=C/C(=O)/C=C/c2ccc(Oc3ccccc3)cc2)C(C)(C)CCC1O` (stereo not shown) [Compound B56], the IC50 worked out at 10.4 µM in data set [4] (setting [11]), 11.5 µM in data set [5] (setting [12]), 10.4 µM in data set [3] (setting [13]) and 7.5 µM in data set [6] (setting [14]).
For `CC1=C(/C=C/C(=O)/C=C/c2ccc(F)cc2)C(C)(C)CCC1` [Compound B10], the IC50 in data set [1] was found to be 7.3 µM; in data set [2], 25.8 µM.
Regarding `CC1=C(/C=C/C(=O)/C=C/c2cc(F)ccc2F)C(C)(C)CCC1O` (stereo not shown) [Compound B66], the IC50 in data set [4] (setting [11]) amounted to 4.5 µM; in data set [5] (setting [12]), 7.2 µM; in data set [3] (setting [13]), 3.5 µM; in data set [6] (setting [14]), 6.9 µM.
The matching figures for `COc1ccccc1/C=C/C(=O)/C=C/C1=C(C)C(O)CCC1(C)C` (stereo not shown) [Compound B65]: 4.6 µM, 7.1 µM, 1.9 µM and 2.6 µM.
Turning to `CC1=C(/C=C/C(=O)/C=C/c2ccc(C)cc2)C(C)(C)CCC1O` (stereo not shown) [Compound B51], the IC50 was 12.3 µM in data set [4] (setting [11]), 18.6 µM in data set [5] (setting [12]), 11.5 µM in data set [3] (setting [13]) and 5.9 µM in data set [6] (setting [14]).
On to `CC1=C(/C=C/C(=O)/C=C/c2ccc(N3CCCCC3)cc2)C(C)(C)CCC1O` (stereo not shown) [Compound B59], for which the IC50 in data set [4] (setting [11]) stood at 31.2 µM; in data set [5] (setting [12]) it was 22.5 µM; in data set [3] (setting [13]), 17.8 µM; in data set [6] (setting [14]), 19.7 µM.
As to `COc1cc(C=CC(=O)C(=Cc2cc(OC)c(OC)c(OC)c2)C(=O)C=CC2=C(C)CCCC2(C)C)cc(OC)c1OC` [Compound 16], the IC50 came out at 1.5 µM in data set [4] (read-out: Cellular IC50 (μM) 22Rv1, Table 2, 72 h); 5.9 µM in data set [5] (read-out: Cellular IC50 (μM) PC-3, Table 2, 72 h, max tested 50 μM (β-ionone 150 μM)); 3.4 µM in data set [3] (read-out: Cellular IC50 (μM) LNCaP, Table 2, 72 h); 2.2 µM in data set [6] (read-out: Cellular IC50 (μM) C4-2B, Table 2, 72 h).
`CC1(C)CCC(O)C=C1/C=C/C(=O)/C=C/c1cccc2cc[nH]c12` (stereo not shown) [Compound B90]: the IC50 in data set [4] (setting [7]) was found to be 2.1 µM; in data set [5] (setting [8]) it was 2.1 µM; in data set [3] (setting [9]), 1.4 µM; in data set [6] (setting [10]), 1.7 µM.
Consider `COc1cc(/C=C/C(=O)/C=C/C2=C(C)C(O)CCC2(C)C)c(OCc2ccccc2)cc1OC` (stereo not shown) [Compound B75], for which the IC50 turned out to be 19.2 µM in data set [4] (setting [11]), 25.4 µM in data set [5] (setting [12]), 16.7 µM in data set [3] (setting [13]) and 23.3 µM in data set [6] (setting [14]).
As to `CCOC(OCC)c1cccc(/C=C/C(=O)/C=C/C2=C(C)C(O)CCC2(C)C)c1` (stereo not shown) [Compound B43], the IC50 in data set [1] is 1.8 µM; in data set [2] it was 4.7 µM.
Regarding `COc1cc(/C=C/C(=O)/C=C/C2=C(C)CCCC2(C)C)ccc1O` [Compound B1], the IC50 came out at 9.5 µM in data set [1] and 21.3 µM in data set [2].
On to `COc1cc(/C=C/C(O)=C/C(=O)/C=C/C2=C(C)CCCC2(C)C)ccc1O` [Compound 1], for which the IC50 in data set [4] (read-out: IC50 (μM) 22Rv1, Table 1, 72 h) came to 10.6 µM; in data set [5] (read-out: IC50 (μM) PC-3, Table 1, 72 h, maximum tested concentration 50 μM) it was 15.8 µM; in data set [3] (read-out: IC50 (μM) LNCaP, Table 1, 72 h) it was 20.6 µM; in data set [6] (read-out: IC50 (μM) C4-2B, Table 1, 72 h) it was 44.3 µM.
